Data as given in patent US12171734B2, “Pathogenic bacteria” (Sporegen Limited, priority 2018, dated 2024).

Test system: multi-drug resistant M. tuberculosis (Peru isolate)
Experiment: microbe, parasite or virus in culture
Format: cell-based
Details: Mycobacterium tuberculosis, 240 h, read-out: MIC, MDR-TB Peru isolate

SMILES: NNC(=O)c1ccncc1 [Isoniazid]
- MIC: > 4 µg/mL

SMILES: CO[C@H]1/C=C/O[C@@]2(C)Oc3c(C)c(O)c4c(O)c(c(/C=N/N5CCN(C)CC5)c(O)c4c3C2=O)NC(=O)/C(C)=C\C=C\[C@H](C)[C@H](O)[C@@H](C)[C@@H](O)[C@@H](C)[C@H](OC(C)=O)[C@@H]1C [Rifampicin]
- MIC: > 4 µg/mL
